# Assay results: patent publication US20150216870A1, “Combination of PI3K Inhibitor and C-Met Inhibitor” (Novartis AG, priority 2012, published 2015)
# Entries after “also recorded” stand apart in the source; their conditions may differ.
# Legend:
# U-87 MG = test: CellTiter-Glo cell viability dose matrix in U-87 MG glioblastoma cells; assay type: cell-based, human; conditions: U87 MG (PTEN mutant, HGF expressing)
# Description: (§1) The PI3K inhibitor COMPOUND C and the c-MET receptor tyrosine kinase inhibitor 2-fluoro-N-methyl-4-[7-quinolin-6-yl-methyl)-imidazo[1,2-b][1,2,4]triazin-2yl]benzamide are evaluated in combination in glioblastoma tumor models. COMPOUND C (10 mM) and 2-fluoro-N-methyl-4-[7-quinolin-6-yl-methyl)-imidazo[1,2-b][1,2,4]triazin-2yl]benzamide (10 mM) are dissolved in DMSO, and are stored in aliquots at −20° C.
# (§2) Human Glioblastoma cell lines, U-87 MG (PTEN mutant and HGF expressing line), H4 (PTEN mutant and HGF expressing line), A172 (PTEN mutant line with low HGF expression level) and LN-229 (PTEN wildtype and HGF low) are purchased from American Type Cell Collection and are maintained in a humidified incubator at 37° C. in 5% CO2 in recommended media. All four cell lines express detected MET at the mRNA level.
# (§3) The cells are passaged twice a week and the medium is changed every 2 to 3 days. […]
# (§4) Cell viability is determined by measuring cellular ATP content using the CellTiter-Glo® (CTG) luminescent cell viability assay (Promega). […] An equal volume of the CTG reagents is added to each well at the end of the compound treatment and luminescence is recorded on an Envision plate reader (Perkin Elmer). Reduced and enhanced luminescent signal values (responses) are calculated relative to untreated (control) cells. […]
# A172 = test: CellTiter-Glo cell viability dose matrix in A172 glioblastoma cells; assay type: cell-based, human; conditions: A172 (PTEN mutant, low HGF)
# Description: as §1, §2, §3, §4
# [1] = Toxicity (deaths) in U-87 MG xenograft study; assay type: in vivo
# Excerpt: Animals are weighed on Days 1-5, on each treatment day (except weekends), and twice weekly thereafter, until the end of the study. Group mean BW nadir determinations exclude measurements taken after more than 50% of the assessable mice in the group had exited the study, and also excluded any animal that was classified as an NTR death during the study. Acceptable toxicity for the maximum tolerated dose (MTD) is defined as a group mean BW loss of less than 15% during the test, and not more than one TR death among ten animals. Any animal with BW losses exceeding 15% for three consecutive measurements, or with a BW loss exceeding 20% for one measurement, are euthanized, and classified as a TR death unless it was the first death in the group. A death is classified as Non-Treatment Related (NTR) if there was no evidence that the death is related to treatment side effects and the death occurs more than 14 days after dosing ended. NTR deaths are categorized as NTRa (due to accident or error), NTRu (due to unknown causes), or NTRm (necropsy-confirmed tumor dissemination by invasion and/or metastasis). To conserve animals while providing maximum information, the first death in a group was classified as NTRu; such an NTR death was to be reclassified as TR if two subsequent TR deaths are recorded in the same group.
# [2] = system: NCI-H1993 human non-small cell lung carcinoma xenograft; test: NCI-H1993 xenograft tumor growth inhibition and tumor growth delay; assay type: in vivo, athymic nude mice; conditions: c-Met inhibitor 17.7 mg/kg p.o. b.i.d. to end
# Excerpt: In this experiment, the NCI-H1993 human non-small cell lung carcinoma xenograft model is used to assess the anti-tumor efficacy of the PI3K inhibitor COMPOUND D and c-Met inhibitor 2-fluoro-N-methyl-4-[7-quinolin-6-yl-methyl)-imidazo[1,2-b][1,2,4]triazin-2yl]benzamide as single agents or in combination. NCI-H1993 tumor cells obtained from the American Type Culture Collection (ATCC) are derived from a lymph node metastasis of a patient having a stage 3A lung adenocarcinoma and a history of smoking.
# Female athymic nude mice (Crl:NU (Ncr)-Foxn1^nu, Charles River) are 8 weeks old, and have a body weight (BW) range of 16.1-26.2 g, on D1 of the study. The animals are fed ad libitum water (reverse osmosis, 1 ppm CI) and NIH 31 Modified and Irradiated Lab Diet® consisting of 18.0% crude protein, 5.0% crude fat, and 5.0% crude fiber. The mice are housed on irradiated Enrich-O'cobs™ Laboratory Animal Bedding in static microisolators on a 12-hour light cycle at 20-22° C. (68-72° F.) and 40-60% humidity.
# The NCI-H1993 tumor line is obtained from the American Type Culture Collection and maintained at DRS_NC in RPMI-1640 medium containing 100 unites/penicillin G sodium, 100 µg/mL streptomycin sulfate, 25 µg/mL gentamicin, 10% fetal bovine serum, and 2 mM glutamine. The tumor cells are cultured in tissue culture flasks in a humidified incubator at 37° C. in an atmosphere of 5% CO2 and 95% air.
# The tumor cells used for implementation are harvested during log phase growth and resuspended in cold PBS containing 50% Matrigel™ (BD Biosciences). Each mouse is injected subcutaneously in the right flank with 1×10^7 cells (0.2 mL cell suspension). Tumors are calipered in two dimensions to monitor growth as their mean volume approached the desired 200-250 mm^3 range. Tumor size, in mm^3, was calculated from: Tumor Volume=(width^2×length)/2, where width and length (in mm) are measurements of the tumor. Tumor weight can be estimated with the assumption that 1 mg is equivalent to 1 mm^3 of tumor volume. Fourteen days after tumor cell implantation, on D1 of the study, mice with individual tumor volumes of 172-256 mm^3 are sorted into groups of ten mice, with group mean tumor volumes of 206-215 mm^3.
# The c-Met inhibitor 2-fluoro-N-methyl-4-[7-quinolin-6-yl-methyl)-imidazo[1,2-b][1,2,4]triazin-2yl]benzamide (HCl salt, 84.98% free base) is stored at 4° C. and is added to a volume of deionized water equal to 1/2 of the final volume and sonicated until dissolved to obtain a uniform 2× suspension. An equal volume of 0.5% methylcellulose: 0.1% Tween® 80 is added to provide a 1.77 mg/mL solution with final vehicle concentrations of 0.25% methylcellulose and 0.05% Tween® 80 in deionized water (Vehicle 1). Fresh solutions are prepared once daily for the […]. dosing and stored at room temperature until the a.m. dosing.
# COMPOUND D is suspended at 3.0 mg/mL in 0.5% methylcellulose in deionized water. The vehicle is added in portions equal to 1/3 of the final volume. The suspension is vortexed after each addition, and then finally probe sonicated on ice to prepare a homogeneous white suspension. A fresh suspension is prepared weekly, stored at 4° C., and re-suspended prior to dosing.
# The c-MET inhibitor and the vehicle is each administered via oral gavage (p.o.) twice daily for the duration of the study (b.i.d. to end). COMPOUND D is administered via oral gavage (p.o.) once daily for the duration of the study (qd to end). In combination therapies, COMPOUND D is dosed within 30 minutes after the c-Met inhibitor. In all groups, the dosing volume of 10 mL/kg (0.2 mL/20 g mouse) is scaled to the weight of each animal as determined on the day of dosing, except on weekends when the previous BW is carried forward.
# The groups of nude mice (n=10/group) are treated as follows. Group 1 receive Vehicle 1 and Vehicle 2 and serve as controls for the study. […] Group 3 receives 30 mg/kg COMPOUND D monotherapy once daily for the duration of the study (qd to end).
smiles,measurement,setting,value
CNC(=O)c1ccc(-c2cnc3ncc(Cc4ccc5ncccc5c4)n3n2)cc1F [c-Met inhibitor],anti-proliferative activity (single agent),U-87 MG,only moderate activities
same,anti-proliferative activity (single agent),A172,completely inactive
same,Deaths,[1]; c-Met inhibitor 17.7 mg/kg p.o. qd x21,(0)
same,Deaths,[1]; c-Met inhibitor 35.3 mg/kg p.o. qd x21,(0)
same,% TGD,[2],97%
same,D71 survivors,[2],four
same,T-C,[2],24.2 days
same,T/C or T/T0,[2]; D20,15%
same,Median TTE,[2]; endpoint 600 mm3,49.2 days
same,overall survival (in words),[2]; logrank vs control,significantly extends survival; also recorded: significant survival extension
same,D20 tumor growth inhibition (in words),[2]; vs control Group 1,does not achieve significant inhibition relative to control; also recorded: non-significant D20 tumor growth inhibition
